Laboratory results taken from patent US20240374739A1, “BILE ACID CONJUGATE” (Curtin University, priority 2021, published 2024).
Entries after “also recorded” stand apart in the source; their conditions may differ.

Experiments:
[1] = system: diabetic db/db mice; experiment: Passive Avoidance Test in diabetic db/db mice (Experimental Example 5); type: in vivo; settings: administered from 5 weeks of age, tested at 14 weeks
Method: (§1) Cognitive function in diabetic db/db mice was tested with Passive Avoidance and Novel Object Recognition tests. For both tests, the higher the value, the better the memory.
(§2) The mice were administered with either probucol, HA-1 or apoCIII antisense from 5 weeks of age, and cognitive performance was tested at 14 weeks of age.

[2] = system: Neurodegenerated cells (Alzheimer's disease model); experiment: Gene expression analysis by qRT-PCR for neuronal, cholinergic and AD associated markers; type: cell-based, human; settings: 24 h drug treatment
Method: (§3) Perinatal tissue derived human stem cell model for Alzheimer's disease (AD) was prepared using proprietary protocols to test the effect of new drug entities. Drug treatment was for 24 h in all the assays.
For determining the expression of genes involved in AD specific neurodegeneration and neuronal markers, we analysed BACE and chAT (AD and cholinergic markers) and synapsin 1 and neuropilin (neuronal markers).

[3] = system: rat model of repeated sub-concussion; experiment: Blood-brain barrier integrity (IgG extravasation), rat model of repeated sub-concussion; type: in vivo, Female PVG rats; settings: rats, 12-week repeated sub-concussion
Description: (§4) Female PVG rats aged 5-7 weeks were used. Under complete anaesthesia with isoflurane, a 25 g weight was dropped onto lambda of the skull from a 1 m height. This was repeated consecutively for 10 times per procedure. The procedure was repeated 3 times per week (i.e., Monday, Wednesday, Friday) for the duration of 12 weeks. Sham group rats received the same procedure without the weight drops. The probucol treatment group received probucol which was supplemented into the diet at 0.1% w/w. The HA-1 treatment group received HA-1 also in the diet at 0.2% w/w for the entire duration of the study.
The rats were then sacrificed to obtain brain tissue for further analyses.
The increase of IgG extravasation in SC rats indicates disruption of the BBB, allowing blood-borne IgG to leak into the brain.

[4] = system: rat model of repeated sub-concussion; experiment: Rotarod test, rat model of repeated sub-concussion (Experimental Example 6); type: in vivo, Female PVG rats; settings: rats, 12-week repeated sub-concussion; probucol 0.1% w/w, HA-1 0.2% w/w in diet (FIG. 20A)
Description: as §4
After the completion of 12-week sub-concussion procedures, neuromotor function was tested with established rotarod and beamwalk tests. On beamwalk, the higher the slips show, the more impairment. On rotarod, the lower the latency indicates the more impairment.

[5] = system: diabetic db/db mice; experiment: Novel Object Recognition Test in diabetic db/db mice (Experimental Example 5); type: in vivo; settings: at 14 weeks of age
Method: as §1, §2

[6] = system: diabetic db/db mice; experiment: BBB integrity (IgG extravasation) in diabetic db/db mice; type: in vivo; settings: for IgG extravasation in CTX: 28-week old
Description: In this study, 4-5 week old diabetic db/db mice were put onto a diet containing probucol 0.1% (w/w) or HA-1 0.2% (w/w) for either 10 or 24 weeks, till the age of 14 or 28 weeks, respectively. Passive avoidance test was used to assess short-term memory. Subsequently, the mice were sacrificed to obtain plasma and brain tissue samples for further analyses.

[7] = system: Pancreatic NIT-1 β-cells; experiment: MTT viability assay on pancreatic NIT-1 β-cells; type: cell-based; settings: glucose 25.5 mM (hyperglycemic); 10 μM probucol, 10 μM HA-1
Method: Cells were grown and processed in a Dulbecco's Modified Eagle's media with 11.5% foetal bovine serum, as per the protocols described below.
Specifically, the cells were cultured on T-75 cm^2 tissue culture flasks (Thermo Fisher Scientific®, Australia) and fed with Dulbecco's modified Eagle's medium (DMEM) (Gibco, Life Technologies, USA) supplemented with either 5.5 mM glucose or 25.5 mM glucose (Sigma Chemical Co, USA), 11.5% fetal bovine serum (Thermo Fisher Scientific, Australia), and 5% penicillin-streptomycin (Thermo Fisher Scientific, Australia). The β-cells were incubated in an environment of 5% CO2 in humidified air at 37° C. using a Nuaire NU-8500 Water Jacket CO2 Incubator (Nuaire, USA) for 72 hours.
The MTT assay for cellular mitochondrial activity is a common and an important analytical technique for determining the degree of cell viability and biological activity. Briefly, MTT was prepared as 5 mg/ml stock solution (Sigma Chemical CO, USA) in phosphate buffer, at pH 7.4 (Thermo Fisher Scientific, Australia). The undissolved residues were removed by sterile filtration. The stock solution was stored in a sterile environment at 4° C. in the dark and used within 7 days of preparation. […] Formazan was dissolved in 100 μl of dimethyl sulfoxide (DMSO) (Sigma Chemical CO, USA) via reverse pipetting and the resultant purple solution was analysed photometrically at 550 nm.

[8] = system: Neurodegenerated cells (Alzheimer's disease model); experiment: Immunocytochemical localization of AD specific and neuronal markers; type: cell-based, human; settings: fluorescence micrographs
Method: as §3
For further confirmation and protein localization of the AD specific neurodegenerative markers and neuronal markers, we performed immunolocalization for BACE1 and synapsin respectively.
Fluorescence micrographs of BACE1 positive neuronal cells were obtained and the effects of probucol, SPQ and HA-1 on neurodegeneration model were compared. […] In the AD model, as expected BACE1 accumulation is clearly pronounced.
In the case of synapsin 1, a disruption in expression of synapsin protein in ND cells was observed.

[9] = system: Amniotic membrane mesenchymal stem cells (AM-MSCs); experiment: Cytotoxicity study by MTT cell viability assay; type: cell-based, human; settings: 10-30 μM, 24 hours
Method: (§5) Amniotic membrane mesenchymal stem cells (AM-MSCs) were incubated with different concentrations (10, 15, 20, 25 and 30 uM, and DMSO control) of (A) probucol, (B) SPQ, (C) HA-1, and (D) DMSO for 24 hours. D1=DMSO control for 10 μM, D2=DMSO control for 20 μM (p<0.05; *p<0.05, **p<0.001, ***p<0.0001, ns=non-significant, n=3).
as §5, with “HA-1 and,” for “HA-1, and”

[10] = Experimental Example 1 (FIG. 1)
[11] = Experimental Example 2 (FIG. 8)

Row | SMILES | Passive Avoidance Test latency (short-term memory) [1] | BACE1 gene expression (qRT-PCR) [2] | ChAT gene expression (qRT-PCR) [2] | neuropilin gene expression (qRT-PCR) [2] | synapsin 1 (Syn) gene expression (qRT-PCR) [2] | IgG extravasation in cortex (CTX) [3] | IgG extravasation in hippocampal formation (HPF) [3] | rotarod latency [4] | Novel Object Recognition Test preference index [5] | IgG extravasation in HPF ([6]; 14 weeks of age) | IgG extravasation in CTX [6] | IgG extravasation in HPF ([6]; 28 weeks) | NIT-1 cell viability [7] | accumulation of BACE1 protein (immunolocalization) [8] | synapsin 1 protein expression (immunolocalization) [8] | cytotoxicity by MTT cell viability assay [9, 10] | cytotoxicity by MTT cell viability assay [9, 11]
1 | CC(=O)O[C@@H]1CC[C@@]2(C)[C@H](CC[C@@H]3[C@@H]2CC[C@]2(C)[C@@H]([C@H](C)CCC(=O)Oc4c(C(C)(C)C)cc(SC(C)(C)Sc5cc(C(C)(C)C)c(O)c(C(C)(C)C)c5)cc4C(C)(C)C)CC[C@@H]32)C1 [HA-1, 2,6-di-tert-butyl-4-((2-((3,5-di-tert-butyl-4-hydroxyphenyl)thio)propan-2-yl)thio)phenyl (4R)-4-[(3R,5R,8R,9S,10S,13R,14S,17R)-3-acetoxy-10,13-dimethyl-2,3,4,5,6,7,8,9,11,12,14,15,16,17-tetradecahydro-1H-cyclopenta[a]phenanthren-17-yl]pentanoate] | completely restore the memory; also recorded: equivalent latency to Neg control and probucol group mice | decrease the level of beta secretase 1 (BACE1) | increase the level of choline acetyltransferase (ChAT) | increased | increased | more effective than probucol in attenuating BBB disruption | more effective than probucol in attenuating BBB disruption | significant increase in the latency | no significant effects | significantly attenuated | significantly reduced | significantly attenuated the BBB breakdown | even more profound effect on ameliorating cell death | least expression | clear reversal of degeneration |  | 
2 | CC1(C)SC2(C=C(C(C)(C)C)C(=O)C(C(C)(C)C)=C2)C2(C=C(C(C)(C)C)C(=O)C(C(C)(C)C)=C2)S1 [SPQ, 2,4,9,11-tetrakis(1,1-dimethylethyl)-14,14-dimethyl-13,15-dithiadispiro[5.0.5.3]pentadeca-1,4,8,11-tetraene-3,10-dione] |  | decrease the level of beta secretase 1 (BACE1) | increase the level of choline acetyltransferase (ChAT) | increased | increased |  |  |  |  |  |  |  |  |  | clear reversal of degeneration | not toxic to the cells | not toxic to the cells
3 | CC(C)(Sc1cc(C(C)(C)C)c(O)c(C(C)(C)C)c1)Sc1cc(C(C)(C)C)c(O)c(C(C)(C)C)c1 [probucol, 2,6-ditert-butyl-4-[2-(3,5-ditert-butyl-4-hydroxyphenyl)sulfanylpropan-2-ylsulfanyl]phenol] | completely prevented the memory loss | decrease the level of beta secretase 1 (BACE1) | increase the level of choline acetyltransferase (ChAT) | increased | increased | some reduction in the CTX IgG extravasation | no protection against BBB disruption in HPF | did not show any changes | no significant effects | significantly attenuated | no beneficial effects on CTX IgG extravasation | did not show BBB protection | partially offset hyperglycaemia-induced pancreatic beta cell death |  | clear reversal of degeneration | not toxic to the cells | not toxic to the cells
